Experimental data taken from patent publication EP1000039B1 (Wyeth Holdings Corporation, priority 1997, dated 1999).
In brackets after ≈: the same amount, converted by molar mass. Read-outs that look alike come from different tables or passages of the source.

Experiments:
[1] = test system: A2780DDP; test: Inhibition of Cancer Cell Growth (Sulforhodamine B); type: cell-based, Human; conditions: 48 hours exposure; for IC50: Homo sapiens, read-out: Inhibition of Cancer Cell Growth as Measured by Cell Number (IC50) A2780DDP
Description: (§1) After 48 hours exposure to test compounds, cells were fixed with trichloroacetic acid, and stained with Sulforhodamine B. After washing with trichloroacetic acid, bound dye was solubilized in 10 mM Tris base and optical density was determined using plate reader. Under conditions of the assay the optical density is proportional to the number of cells in the well. […] The test procedure is described in details by Philip Skehan et. al. J.Natl. Canc. […]

[2] = test system: A431; test: as above; type: cell-based, Human; conditions: for IC50: Homo sapiens, A-431, 48 hours exposure, read-out: Inhibition of Cancer Cell Growth as Measured by Cell Number (IC50) A431
Description: as §1

[3] = test system: A2780S; test: as above; type: cell-based, Human; conditions: 48 hours exposure; for IC50: Homo sapiens, read-out: Inhibition of Cancer Cell Growth as Measured by Cell Number (IC50) A2780S
Description: as §1

[4] = test system: MB435; test: as above; type: cell-based, Human; conditions: 48 hours exposure; for IC50: Homo sapiens, read-out: Inhibition of Cancer Cell Growth as Measured by Cell Number (IC50) MB435
Description: as §1

[5] = test system: SW620; test: as above; type: cell-based, Human; conditions: for IC50: Homo sapiens, SW-620, 48 hours exposure, read-out: Inhibition of Cancer Cell Growth as Measured by Cell Number (IC50) SW620
Description: as §1

[6] = test system: MCF7; test: as above; type: cell-based, Human; conditions: 48 hours exposure; for IC50: Homo sapiens, read-out: Inhibition of Cancer Cell Growth as Measured by Cell Number (IC50) MCF7
Description: as §1

[7] = test system: SKBR3; test: as above; type: cell-based, Human; conditions: for IC50: Homo sapiens, SK-BR-3, 48 hours exposure, read-out: Inhibition of Cancer Cell Growth as Measured by Cell Number (IC50) SKBR3
Description: as §1

[8] = test system: LOX; test: as above; type: cell-based, Human; conditions: 48 hours exposure; for IC50: Homo sapiens, read-out: Inhibition of Cancer Cell Growth as Measured by Cell Number (IC50) LOX
Description: as §1

[9] = molecular target: T1, His-tagged cytoplasmic domain of EGFR (Homo sapiens, UniProt P00533); test: Inhibition of Epidermal Growth Factor Receptor Kinase (EGF-R) using recombinant enzyme, RR-SRC peptide phosphorylation; type: biochemical
T1 construct: containing the EGFR cDNA encoding amino acids 645 - 1186 preceded by Met-Ala-(His)6; Met-Ala-(His)6 (N); made in house; host or cells: Sf9 insect cells, recombinant baculovirus vHcEGFR52
Description: The enzyme used in this assay is the His-tagged cytoplasmic domain of EGFR. […] Sf9 cells in 100 mm plates were infected at an moi of 10 pfu/cell and cells were harvested 48 h post infection. A cytoplasmic extract was prepared using 1% Triton X-100 and applied to Ni-NTA column. After washing the column with 20 mM imidazole, HcEGFR was eluted with 250 mM imidazole (in 50 mM Na2HPO4, pH 8.0, 300 mM NaCl). Fractions collected were dialyzed against 10 mM HEPES, pH 7.0, 50 mM NaCl, 10% glycerol, 1ug/mL antipain and leupeptin and 0. 1 mM Pefabloc SC. The protein was frozen in dry ice/methanol and stored -70°C.
For the enzyme reaction, 10 uL of each inhibitor (at various concentrations) were added to each well of a 96-well plate. To this was added 3 uL of enzyme (1: 10 dilution in 10mM HEPES, pH 7.4 for final conc. of 1:120). This was allowed to sit for 10 min on ice and was followed by the addition of 5 ul peptide (80 uM final conc.), 10ul of 4X Buffer (Table A), 0.25 uL ^33P-ATP and 12 uL H2O. The reaction was allowed to run for 90 min at room temperature and was followed by spotting the entire volume on to precut P81 filter papers. The filter discs were washed 2X with 0.5% phosphoric acid and radioactivity was measured using a liquid scintillation counter.

[10] = recombinant enzyme, average of the number of tests, read-out: IC50

T1 sequence (P00533 669-1210): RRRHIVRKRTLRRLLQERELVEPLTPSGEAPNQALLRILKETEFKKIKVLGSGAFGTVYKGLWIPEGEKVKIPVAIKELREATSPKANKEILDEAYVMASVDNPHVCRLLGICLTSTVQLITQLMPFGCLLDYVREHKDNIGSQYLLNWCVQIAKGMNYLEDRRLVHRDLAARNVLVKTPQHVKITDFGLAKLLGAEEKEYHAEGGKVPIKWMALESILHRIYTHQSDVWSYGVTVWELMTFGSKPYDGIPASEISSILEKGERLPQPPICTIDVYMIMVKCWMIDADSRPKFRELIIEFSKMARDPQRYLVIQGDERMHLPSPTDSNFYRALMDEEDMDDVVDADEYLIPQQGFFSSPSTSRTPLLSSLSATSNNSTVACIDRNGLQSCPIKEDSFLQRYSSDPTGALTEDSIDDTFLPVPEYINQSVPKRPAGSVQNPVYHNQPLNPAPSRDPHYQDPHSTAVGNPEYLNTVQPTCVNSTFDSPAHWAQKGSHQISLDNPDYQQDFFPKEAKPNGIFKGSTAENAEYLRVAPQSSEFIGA

Row | Compound | Inhibition of Cancer Cell Growth as Measured by Cell Number (IC50) A2780DDP [1] [mg/L] | Inhibition of Cancer Cell Growth as Measured by Cell Number (IC50) A431 ([2]; 48 hours exposure) [mg/L] | Inhibition of Cancer Cell Growth as Measured by Cell Number (IC50) A2780S [3] [mg/L] | Inhibition of Cancer Cell Growth as Measured by Cell Number (IC50) MB435 [4] [mg/L] | Inhibition of Cancer Cell Growth as Measured by Cell Number (IC50) SW620 ([5]; 48 hours exposure) [mg/L] | Inhibition of Cancer Cell Growth as Measured by Cell Number (IC50) MCF7 [6] [mg/L] | Inhibition of Cancer Cell Growth as Measured by Cell Number (IC50) SKBR3 ([7]; 48 hours exposure) [mg/L] | Inhibition of Cancer Cell Growth as Measured by Cell Number (IC50) LOX [8] [mg/L] | IC50 [1] [mg/L] | IC50 [2] [mg/L] | IC50 [3] [mg/L] | IC50 [4] [mg/L] | IC50 [5] [mg/L] | IC50 [6] [mg/L] | IC50 [7] [mg/L] | IC50 [8] [mg/L] | IC50 [9, 10] [nM] | IC50 [9] [nM]
1 | 4-Diethylamino-but-2-enoic acid [4-(3-bromo-phenylamino)-quinazolin-6-yl]-amide [Example 67] | 43 | 0.01 | 22 | 45 | 52 | 59 | <0.01 | 46 |  |  |  |  |  |  |  |  |  | 
2 | O=C(C#CCCl)Nc1ccc2ncnc(Nc3cccc(Br)c3)c2c1 [Example 12, 4-Chloro-but-2-ynoic acid [4-(3-bromo-phenylamino)-quinazolin-6-y]-amide] |  |  |  |  |  |  |  |  | 0.07 (≈ 0.168 µM) | 0.03 (≈ 0.0722 µM) | 0.03 (≈ 0.0722 µM) | 0.39 (≈ 0.938 µM) | 0.06 (≈ 0.144 µM) | 0.49 (≈ 1.18 µM) | < 0.01 | 0.04 (≈ 0.0962 µM) | 5 | 
3 | CC(C)(C)[Si](C)(C)OCC#CC(=O)Nc1ccc2ncnc(Nc3cccc(Br)c3)c2c1 [Example 15, 4-(tert-Butyl-dimethyl-silanyloxy)-but-2-ynoic acid [4-(3-bromo-phenylamino)quinazolin-6-yl]-amide] |  |  |  |  |  |  |  |  | 0.05 (≈ 0.0978 µM) | 0.04 (≈ 0.0782 µM) | 0.02 (≈ 0.0391 µM) | 0.42 (≈ 0.821 µM) | 0.02 (≈ 0.0391 µM) | 0.45 (≈ 0.88 µM) | 0.38 (≈ 0.743 µM) | 0.03 (≈ 0.0587 µM) | 6 | 
4 | O=C(C#CCN1CCOCC1)Nc1ccc2ncnc(Nc3cccc(Br)c3)c2c1 [Example 19, 4-Morpholin-4-yl-but-2-ynoic acid [4-(3-bromo-phenylamino)-quinazolin-6-yl]-amide] |  |  |  |  |  |  |  |  | 3.32 (≈ 7.12 µM) | 0.02 (≈ 0.0429 µM) | 4.37 (≈ 9.37 µM) | 5.95 (≈ 12.8 µM) | 1.1 (≈ 2.36 µM) | 6.36 (≈ 13.6 µM) | 0.003 (≈ 0.00643 µM) | 3.55 (≈ 7.61 µM) |  | 50
5 | COCC#CC(=O)Nc1ccc2ncnc(Nc3cccc(Br)c3)c2c1 [Example 23, 4-Methoxy-but-2-ynoic acid [4-(3-bromo-phenylamino)-quinazolin-6-yl]-amide] |  |  |  |  |  |  |  |  | 0.06 (≈ 0.146 µM) | 0.05 (≈ 0.122 µM) | 0.12 (≈ 0.292 µM) | 0.8 (≈ 1.95 µM) | 0.06 (≈ 0.146 µM) | 0.5 (≈ 1.22 µM) | 0.06 (≈ 0.146 µM) | 0.02 (≈ 0.0486 µM) | 0.31 | 
6 | CCN1CCN(CC#CC(=O)Nc2ccc3ncnc(Nc4cccc(Br)c4)c3c2)CC1 [Example 28, 4-(4-Ethyl-piperazin-1-yl)-but-2-ynoic acid [4-(3-bromophenylamino)-quinazolin-6-yl]-amide] |  |  |  |  |  |  |  |  | 0.56 (≈ 1.13 µM) | 0.6 (≈ 1.22 µM) | 0.84 (≈ 1.7 µM) | 1.61 (≈ 3.26 µM) | 2.38 (≈ 4.82 µM) | 3.09 (≈ 6.26 µM) | 0.1 (≈ 0.203 µM) | 1.94 (≈ 3.93 µM) |  | 5.5
7 | COCCN(CC#CC(=O)Nc1ccc2ncnc(Nc3cccc(Br)c3)c2c1)CCOC [Example 31, 4-[Bis-(2-methoxy-methyl]-amino]-but-2-ynoic acid [4-(3-bromophenylamino)-quinazolin-6-yl]-amide] |  |  |  |  |  |  |  |  | 0.6 (≈ 1.17 µM) | 0.01 (≈ 0.0195 µM) | 0.2 (≈ 0.39 µM) | 0.7 (≈ 1.37 µM) | 0.4 (≈ 0.781 µM) |  | < 0.01 | 0.5 (≈ 0.976 µM) | 2 | 
8 | CN1CCN(CC#CC(=O)Nc2ccc3ncnc(Nc4cccc(Br)c4)c3c2)CC1 [Example 34, 4-(4-Methyl-piperazin-1-yl]-but-2-ynoic acid [4-(3-bromophenylamino)-quinazolin-6-yl]-amide] |  |  |  |  |  |  |  |  |  |  |  |  |  |  |  |  | 35 | 
9 | COCCN(C)CC#CC(=O)Nc1ccc2ncnc(Nc3cccc(Br)c3)c2c1 [Example 37] |  |  |  |  |  |  |  |  |  |  |  |  |  |  |  |  | 4.5 | 
